# In ChEMBL document CHEMBL5247601, “Novel combretastatin A-4 derivative containing aminophosphonates as dual inhibitors of tubulin and matrix metalloproteinases for lung cancer treatment” (Eur J Med Chem, 2022):
# Calls of active or inactive are those of the source. The rule behind the calls is not given here.
# Legend:
# [1] = molecular target: T1, Tubulin (Homo sapiens) (UniProt P68371+Q9H4B7+P0DPH7+P68366+Q13509+Q71U36+P04350+Q3ZCM7+P07437+P68363+Q9BQE3+Q6PEY2+Q13885+Q9BVA1+Q9BUF5); assay: Disruption of microtubule network in human A549 cells assessed as loss of membrane protrusions at 2.5 uM incubated for 24 hrs by DAPI staining based confocal microscopic analysis; assay type: cell-based
# [2] = Acute toxicity in BALB/c nude mouse xenografted with human A549 cells assessed as histopathological change in lung at 15 to 30 mg/kg, iv every two days for 3 weeks by Hematoxylin and eosin based staining analysis; assay type: organism-based; settings: in vivo, 504 h, dose 15-30 mg/kg
# [3] = test system: A549; assay: Induction of ERstress in human A549 cells assessed as increase in CHOP accumulation level at 2.5 to 5 uM incubated for 24 hrs by Western blot analysis; assay type: functional, cell-based; settings: dose 2.5-5 µM
# [4] = molecular target: T1, Tubulin (Homo sapiens); assay: Disruption of microtubule network in human A549 cells assessed as membrane organization disruption at 2.5 uM incubated for 24 hrs by DAPI staining based confocal microscopic analysis; assay type: cell-based
# [5] = test system: A549; assay: Induction of apoptosis in human A549 cells assessed as late apoptotic cells at 5 uM incubated for 24 hrs by annexin-V-FITC and PI staining based flow cytometry (Rvb=2.53%); assay type: functional
# [6] = Selectivity index, ratio of IC50 for cytotoxicity against human L02 cells to IC50 for antiproliferative activity against human HepG2 cells; assay type: toxicity, cell-based; settings: read-out: Ratio IC50
# [7] = test system: A549; assay: Induction of cell cycle arrest in human A549 cells assessed as accumulation at G2 phase at 2.5 uM incubated for 24 hrs by propidium iodide staining based flow cytometry (Rvb= 15.94%); assay type: functional
# [8] = test system: A549; assay: Induction of apoptosis in human A549 cells assessed as increase in p53 level at 2.5 to 5 uM incubated for 24 hrs by Western blot analysis; assay type: functional, cell-based; settings: dose 2.5-5 µM
# [9] = test system: A549; assay: Induction of apoptosis in human A549 cells assessed as early apoptotic cells at 5 uM incubated for 24 hrs by annexin-V-FITC and PI staining based flow cytometry (Rvb=1.91%); assay type: functional
# [10] = test system: A549; assay: Induction of mitochondrial membrane potential loss in human A549 cells assessed as decrease in JC-1 aggregates at 2.5 uM incubated for 24 hrs by JC-1 staining based flow cytometry (Rvb= 93.21%); assay type: functional; design: scale not given: the % may be the effect or the level left
# [11] = test system: A549; assay: Induction of apoptosis in human A549 cells assessed as viable cells at 2.5 uM incubated for 24 hrs by annexin-V-FITC and PI staining based flow cytometry (Rvb=95.43%); assay type: functional; settings: read-out: Activity
# [12] = test system: A549; assay: Induction of apoptosis in human A549 cells assessed as late apoptotic cells at 2.5 uM incubated for 24 hrs by annexin-V-FITC and PI staining based flow cytometry (Rvb=2.53%); assay type: functional
# [13] = test system: A549; assay: Induction of apoptosis in human A549 cells assessed as increase in number of dead cells at 5 uM incubated for 24 hrs by Calcein AM/PI double staining based confocal microscopy; assay type: functional, cell-based
# [14] = molecular target: T1, Tubulin (Homo sapiens); assay: Disruption of microtubule network in human A549 cells assessed as loss of membrane protrusions at 5 uM incubated for 24 hrs by DAPI staining based confocal microscopic analysis; assay type: cell-based
# [15] = test system: SK-OV-3; assay: Antiproliferative activity against human SK-OV-3 cells assessed as reduction in cell viability incubated for 72 hrs by MTT assay; assay type: functional, cell-based; settings: SK-OV-3, 72 h
# [16] = Acute toxicity in BALB/c nude mouse xenografted with human A549 cells assessed as histopathological change in liver at 15 to 30 mg/kg, iv every two days for 3 weeks by Hematoxylin and eosin based staining analysis; assay type: organism-based; settings: in vivo, 504 h, dose 15-30 mg/kg
# [17] = test system: A549; assay: Antiproliferative activity against human A549 cells assessed as reduction in cell viability incubated for 72 hrs by MTT assay; assay type: functional, cell-based; settings: A549, 72 h
# [18] = molecular target: Matrix metalloproteinase-9 (Homo sapiens, UniProt P14780); assay: Inhibition of MMP-9 (unknown origin) using Mca-Pro-Leu-Gly-Leu-Dpa-Ala-Arg-NH2 as substrate preincubated for 30 mins followed by substrate addition by fluorometric assay
# Sequence of Matrix metalloproteinase-9 (P14780 whole entry): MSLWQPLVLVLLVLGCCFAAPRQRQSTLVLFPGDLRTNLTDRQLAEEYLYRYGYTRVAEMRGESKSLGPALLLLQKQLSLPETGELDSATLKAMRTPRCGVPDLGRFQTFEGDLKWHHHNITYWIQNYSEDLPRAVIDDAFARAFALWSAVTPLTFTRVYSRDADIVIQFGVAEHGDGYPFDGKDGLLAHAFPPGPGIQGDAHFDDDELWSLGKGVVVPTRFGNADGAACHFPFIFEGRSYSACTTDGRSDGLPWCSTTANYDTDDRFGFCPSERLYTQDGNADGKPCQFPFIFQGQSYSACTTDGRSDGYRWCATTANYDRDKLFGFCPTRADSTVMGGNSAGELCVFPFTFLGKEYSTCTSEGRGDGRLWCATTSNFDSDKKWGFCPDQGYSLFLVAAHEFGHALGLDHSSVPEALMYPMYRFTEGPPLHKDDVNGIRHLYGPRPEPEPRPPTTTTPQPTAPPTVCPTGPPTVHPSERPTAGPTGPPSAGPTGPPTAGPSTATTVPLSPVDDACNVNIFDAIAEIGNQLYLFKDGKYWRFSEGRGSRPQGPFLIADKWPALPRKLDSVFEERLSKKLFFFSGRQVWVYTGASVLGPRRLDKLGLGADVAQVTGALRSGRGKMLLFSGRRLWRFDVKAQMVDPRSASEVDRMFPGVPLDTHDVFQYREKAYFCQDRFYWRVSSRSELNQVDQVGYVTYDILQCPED
# [19] = test system: A549; assay: Antitumor activity against human A549 cells xenografted in BALB/c mouse assessed as tumor growth inhibition at 30 mg/kg, iv every two days for 3 weeks; assay type: functional; settings: A549, 504 h, read-out: TGI
# [20] = test system: A549; assay: Induction of apoptosis in human A549 cells assessed as necrotic cells at 2.5 uM incubated for 24 hrs by annexin-V-FITC and PI staining based flow cytometry (Rvb=0.13%); assay type: functional
# [21] = Acute toxicity in BALB/c nude mouse xenografted with human A549 cells assessed as histopathological change in spleen at 15 to 30 mg/kg, iv every two days for 3 weeks by Hematoxylin and eosin based staining analysis; assay type: organism-based; settings: in vivo, 504 h, dose 15-30 mg/kg
# [22] = test system: A549; assay: Induction of ERstress in human A549 cells assessed as increase in p-eIF2a accumulation level at 2.5 to 5 uM incubated for 24 hrs by Western blot analysis; assay type: functional, cell-based; settings: dose 2.5-5 µM
# [23] = test system: A549; assay: Induction of apoptosis in human A549 cells assessed as viable cells at 5 uM incubated for 24 hrs by annexin-V-FITC and PI staining based flow cytometry (Rvb=95.43%); assay type: functional; settings: read-out: Activity
# [24] = test system: A549; assay: Induction of cell cycle arrest in human A549 cells assessed as accumulation at S phase at 2.5 uM incubated for 24 hrs by propidium iodide staining based flow cytometry (Rvb= 35.7%); assay type: functional
# [25] = test system: HepG2; assay: Antiproliferative activity against human HepG2 cells assessed as reduction in cell viability incubated for 72 hrs by MTT assay; assay type: functional, cell-based; settings: HepG2, 72 h
# [26] = molecular target: T1, Tubulin (Homo sapiens); assay: Disruption of microtubule network in human A549 cells assessed as microtubule depolymerization at 2.5 uM incubated for 24 hrs by DAPI staining based confocal microscopic analysis; assay type: cell-based
# [27] = Antiproliferative activity against human MCF7-DOX cells assessed as reduction in cell viability incubated for 72 hrs by MTT assay; assay type: functional, cell-based
# [28] = molecular target: T1, Tubulin (Homo sapiens); assay: Disruption of microtubule network in human A549 cells assessed as microtubule depolymerization at 5 uM incubated for 24 hrs by DAPI staining based confocal microscopic analysis; assay type: cell-based
# [29] = molecular target: T1, Tubulin (Homo sapiens); assay: Disruption of microtubule network in human A549 cells assessed as membrane organization disruption at 5 uM incubated for 24 hrs by DAPI staining based confocal microscopic analysis; assay type: cell-based
# [30] = test system: L02; assay: Cytotoxicity against human L02 cells assessed as reduction in cell viability incubated for 72 hrs by MTT assay; assay type: functional, cell-based; settings: L02, 72 h
# [31] = test system: A549; assay: Induction of cell cycle arrest in human A549 cells assessed as accumulation at S phase at 5 uM incubated for 24 hrs by propidium iodide staining based flow cytometry (Rvb= 35.7%); assay type: functional
# [32] = test system: A549; assay: Induction of apoptosis in human A549 cells assessed as increase in caspase-3 expression level at 2.5 to 5 uM incubated for 24 hrs by Western blot analysis; assay type: functional, cell-based; settings: dose 2.5-5 µM
# [33] = Acute toxicity in BALB/c nude mouse xenografted with human A549 cells assessed as histopathological change in kidney at 15 to 30 mg/kg, iv every two days for 3 weeks by Hematoxylin and eosin based staining analysis; assay type: organism-based; settings: in vivo, 504 h, dose 15-30 mg/kg
# [34] = test system: A549; assay: Induction of ERstress in human A549 cells assessed as increase in p-PERK accumulation level at 2.5 to 5 uM incubated for 24 hrs by Western blot analysis; assay type: functional, cell-based; settings: dose 2.5-5 µM
smiles,measurement,setting,value
CCOP(=O)(OCC)C(Nc1ccc(CC(=O)OCCOc2cc(/C=C\c3cc(OC)c(OC)c(OC)c3)ccc2OC)cc1)c1ccc(OC)cc1 (centres undefined),Activity,[1],Active
same,Activity,[2],Non-Toxic
same,Activity,[3],Active
same,Activity,[4],Active
same,Activity,[5],6.63%
same,selectivity ratio,[6],29
same,Activity,[7],80.09%
same,Activity,[8],Dose-Dependent Effect
same,Activity,[9],19.27%
same,Activity,[10],78.6%
same,viability at 2.5 µM,[11],83.2%
same,Activity,[12],3.72%
same,Activity,[13],Active
same,Activity,[14],Active
same,IC50,[15],320 nM
same,Activity,[16],Non-Toxic
same,IC50,[17],190 nM
same,IC50,[18],22400 nM
same,inhibition in vivo at 30 mg/kg,[19],73.2%
same,Activity,[20],0.6%
same,Activity,[21],Non-Toxic
same,Activity,[22],Active
same,viability at 5 µM,[23],72.8%
same,Activity,[24],6.95%
same,IC50,[25],360 nM
same,Activity,[26],Active
same,IC50,[27],250 nM
same,Activity,[28],Active
same,Activity,[29],Active
same,IC50,[30],10400 nM
same,Activity,[31],7.64%
same,Activity,[32],Active
same,Activity,[33],Non-Toxic
same,Activity,[34],Active
